Source: ChEMBL document CHEMBL5465560, “Selectivity Literature for EUbOPEN Chemogenomic Library” (2024)
Blank lines part the entries; values can stand above or below the molecule they belong to.

How the values were obtained:
[1] = target: T1, Mitogen-activated protein kinase kinase kinase kinase 2 (Homo sapiens) (UniProt Q12851); assay: Selectivity interaction (ActivX KiNativ screen (kinase selectivity in THP-1 cell lysates)) EUB0000639a MAP4K2; assay type: subcellular; settings: lysate, at 1 µM
T1 sequence (whole entry): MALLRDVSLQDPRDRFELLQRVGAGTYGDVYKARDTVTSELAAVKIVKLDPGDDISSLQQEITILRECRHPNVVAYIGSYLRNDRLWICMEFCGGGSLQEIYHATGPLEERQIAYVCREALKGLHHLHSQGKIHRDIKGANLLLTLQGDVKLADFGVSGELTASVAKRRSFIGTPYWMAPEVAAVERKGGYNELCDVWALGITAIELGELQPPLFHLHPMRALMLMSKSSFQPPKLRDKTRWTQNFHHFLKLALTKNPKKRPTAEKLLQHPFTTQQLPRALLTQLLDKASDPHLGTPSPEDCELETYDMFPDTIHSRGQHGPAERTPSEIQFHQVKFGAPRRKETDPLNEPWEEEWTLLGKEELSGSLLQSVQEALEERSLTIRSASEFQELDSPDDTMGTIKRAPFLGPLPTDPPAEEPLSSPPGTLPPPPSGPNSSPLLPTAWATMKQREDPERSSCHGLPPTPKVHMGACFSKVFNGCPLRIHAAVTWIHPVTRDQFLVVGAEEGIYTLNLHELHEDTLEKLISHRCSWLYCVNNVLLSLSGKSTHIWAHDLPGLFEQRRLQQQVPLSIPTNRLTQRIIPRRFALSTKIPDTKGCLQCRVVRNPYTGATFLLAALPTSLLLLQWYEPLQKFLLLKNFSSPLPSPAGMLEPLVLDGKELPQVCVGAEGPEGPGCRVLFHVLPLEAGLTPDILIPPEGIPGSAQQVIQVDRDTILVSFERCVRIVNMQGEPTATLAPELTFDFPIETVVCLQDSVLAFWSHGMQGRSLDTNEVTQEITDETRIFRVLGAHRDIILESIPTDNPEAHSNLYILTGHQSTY

[2] = target: T2, Tyrosine-protein kinase Tec (Homo sapiens) (UniProt P42680); assay: Selectivity interaction (ActivX KiNativ screen (kinase selectivity in THP-1 cell lysates)) EUB0000639a TEC; assay type: subcellular; settings: lysate, at 5 µM
T2 sequence (whole entry): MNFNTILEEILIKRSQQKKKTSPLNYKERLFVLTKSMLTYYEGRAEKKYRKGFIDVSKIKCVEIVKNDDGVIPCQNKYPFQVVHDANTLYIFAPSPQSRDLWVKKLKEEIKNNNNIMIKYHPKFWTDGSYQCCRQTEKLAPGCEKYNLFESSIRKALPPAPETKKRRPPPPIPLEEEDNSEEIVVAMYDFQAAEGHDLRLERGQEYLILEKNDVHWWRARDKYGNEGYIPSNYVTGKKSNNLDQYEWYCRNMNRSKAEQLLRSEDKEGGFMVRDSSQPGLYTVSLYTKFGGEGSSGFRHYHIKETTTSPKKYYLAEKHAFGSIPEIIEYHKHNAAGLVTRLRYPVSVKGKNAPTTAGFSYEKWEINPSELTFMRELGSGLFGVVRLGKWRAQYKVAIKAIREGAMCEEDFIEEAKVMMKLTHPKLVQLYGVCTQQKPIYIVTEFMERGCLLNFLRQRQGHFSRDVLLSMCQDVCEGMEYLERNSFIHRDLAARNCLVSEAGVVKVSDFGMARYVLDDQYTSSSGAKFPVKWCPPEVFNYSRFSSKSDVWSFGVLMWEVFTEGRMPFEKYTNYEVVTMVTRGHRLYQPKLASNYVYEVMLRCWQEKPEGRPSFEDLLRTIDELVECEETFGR

[3] = target: T3, Serine/threonine-protein kinase DCLK3 (Homo sapiens) (UniProt Q9C098); assay: Selectivity interaction (KinomeScan (DiscoverX)) EUB0000229b DCLK3; settings: at 10 µM
T3 sequence (whole entry): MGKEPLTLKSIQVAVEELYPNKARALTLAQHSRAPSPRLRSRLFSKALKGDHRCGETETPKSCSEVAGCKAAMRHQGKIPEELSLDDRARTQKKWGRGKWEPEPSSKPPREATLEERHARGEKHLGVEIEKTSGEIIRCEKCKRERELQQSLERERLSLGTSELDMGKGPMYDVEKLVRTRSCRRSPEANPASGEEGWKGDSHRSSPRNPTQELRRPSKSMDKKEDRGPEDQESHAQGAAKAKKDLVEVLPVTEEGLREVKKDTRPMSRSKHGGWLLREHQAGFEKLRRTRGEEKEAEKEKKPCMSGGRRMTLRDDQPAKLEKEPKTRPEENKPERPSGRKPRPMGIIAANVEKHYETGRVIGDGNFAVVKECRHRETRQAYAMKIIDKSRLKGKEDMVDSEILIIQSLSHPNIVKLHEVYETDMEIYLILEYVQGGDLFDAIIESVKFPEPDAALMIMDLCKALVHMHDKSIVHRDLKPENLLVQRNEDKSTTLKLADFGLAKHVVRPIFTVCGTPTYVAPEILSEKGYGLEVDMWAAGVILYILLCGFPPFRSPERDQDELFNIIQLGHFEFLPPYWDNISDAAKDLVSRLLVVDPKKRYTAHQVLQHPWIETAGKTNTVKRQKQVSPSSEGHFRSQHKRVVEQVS

[4] = target: Serine/threonine-protein kinase PAK 2 (Homo sapiens) (UniProt Q13177); assay: Selectivity interaction (Upstate Kinase Profiler service (Millipore)) EUB0000056c PAK2; settings: at 1 µM
[5] = target: Tyrosine-protein kinase Fgr (Homo sapiens) (UniProt P09769); assay: Selectivity interaction (KinomeScan (DiscoverX)) EUB0000655a FGR; settings: at 10 µM
[6] = target: Serine/threonine-protein kinase PAK 3 (Homo sapiens) (UniProt O75914); assay: Selectivity interaction (KinomeScan (DiscoverX)) EUB0000655a PAK3; settings: at 10 µM
[7] = target: AMPK alpha2/beta1/gamma1 (Homo sapiens) (UniProt P54646+P54619+Q9Y478); assay: (§1) Selectivity interaction (SelectScreen profiling (Invitrogen)) EUB0000607a PRKAA1; assay type: protein-complex assay; settings: at 2 µM
[8] = target: AMP-activated protein kinase (AMPK) alpha-1/beta-1/gamma-1 (Homo sapiens) (UniProt P54619+Q9Y478+Q13131); assay: as §1; assay type: protein-complex assay; settings: at 2 µM
[9] = target: Glycogen synthase kinase-3 alpha (Homo sapiens, UniProt P49840); assay: Selectivity interaction (SelectScreen profiling (Invitrogen)) EUB0000607a GSK3A; settings: at 2 µM
Sequence of Glycogen synthase kinase-3 alpha (P49840 2-483 limits assumed): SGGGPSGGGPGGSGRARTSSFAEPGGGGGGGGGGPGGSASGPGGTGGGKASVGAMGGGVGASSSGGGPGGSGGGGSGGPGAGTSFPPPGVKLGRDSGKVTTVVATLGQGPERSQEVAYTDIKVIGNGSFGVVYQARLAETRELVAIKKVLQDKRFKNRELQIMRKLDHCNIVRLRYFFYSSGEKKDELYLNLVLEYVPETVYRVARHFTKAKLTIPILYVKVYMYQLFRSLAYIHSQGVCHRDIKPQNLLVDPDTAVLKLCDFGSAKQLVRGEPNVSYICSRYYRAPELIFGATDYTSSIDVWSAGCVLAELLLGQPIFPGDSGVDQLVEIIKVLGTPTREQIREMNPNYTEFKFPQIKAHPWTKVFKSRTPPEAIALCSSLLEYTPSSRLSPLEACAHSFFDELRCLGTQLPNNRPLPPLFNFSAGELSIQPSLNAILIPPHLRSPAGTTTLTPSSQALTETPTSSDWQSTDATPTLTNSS

Sequence of Serine/threonine-protein kinase PAK 2 (Homo sapiens) (Q13177 whole entry): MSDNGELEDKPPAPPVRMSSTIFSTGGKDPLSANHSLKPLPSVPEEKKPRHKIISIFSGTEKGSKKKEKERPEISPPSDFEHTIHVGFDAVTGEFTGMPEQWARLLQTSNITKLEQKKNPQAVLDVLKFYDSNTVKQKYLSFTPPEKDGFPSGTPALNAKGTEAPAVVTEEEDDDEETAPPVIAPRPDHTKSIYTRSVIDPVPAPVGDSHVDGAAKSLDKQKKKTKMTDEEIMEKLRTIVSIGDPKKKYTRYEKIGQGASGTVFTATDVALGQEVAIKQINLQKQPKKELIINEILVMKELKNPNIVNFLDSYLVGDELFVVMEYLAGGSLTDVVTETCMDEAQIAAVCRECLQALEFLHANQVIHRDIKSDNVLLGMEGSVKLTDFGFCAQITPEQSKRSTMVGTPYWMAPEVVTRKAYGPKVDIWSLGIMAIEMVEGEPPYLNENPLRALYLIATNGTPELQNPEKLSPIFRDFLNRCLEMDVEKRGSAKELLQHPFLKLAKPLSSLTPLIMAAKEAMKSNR
Sequence of Tyrosine-protein kinase Fgr (Homo sapiens) (P09769 2-529 limits assumed): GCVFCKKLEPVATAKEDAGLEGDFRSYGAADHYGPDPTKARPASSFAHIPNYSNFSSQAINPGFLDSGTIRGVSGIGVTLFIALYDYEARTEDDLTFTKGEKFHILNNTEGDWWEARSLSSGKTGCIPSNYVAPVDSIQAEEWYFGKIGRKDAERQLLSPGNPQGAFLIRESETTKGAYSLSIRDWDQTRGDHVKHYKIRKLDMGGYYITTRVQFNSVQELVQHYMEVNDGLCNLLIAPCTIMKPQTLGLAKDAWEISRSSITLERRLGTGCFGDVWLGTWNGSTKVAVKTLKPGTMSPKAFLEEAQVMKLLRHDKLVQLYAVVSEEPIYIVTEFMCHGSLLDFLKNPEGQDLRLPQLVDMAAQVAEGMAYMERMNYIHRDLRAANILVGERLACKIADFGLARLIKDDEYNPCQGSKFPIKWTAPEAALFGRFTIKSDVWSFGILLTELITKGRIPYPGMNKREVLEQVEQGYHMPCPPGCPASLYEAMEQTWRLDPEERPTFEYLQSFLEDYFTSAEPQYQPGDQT
Sequence of AMP-activated protein kinase (AMPK) alpha-1/beta-1/gamma-1 (Homo sapiens) (P54619 whole entry): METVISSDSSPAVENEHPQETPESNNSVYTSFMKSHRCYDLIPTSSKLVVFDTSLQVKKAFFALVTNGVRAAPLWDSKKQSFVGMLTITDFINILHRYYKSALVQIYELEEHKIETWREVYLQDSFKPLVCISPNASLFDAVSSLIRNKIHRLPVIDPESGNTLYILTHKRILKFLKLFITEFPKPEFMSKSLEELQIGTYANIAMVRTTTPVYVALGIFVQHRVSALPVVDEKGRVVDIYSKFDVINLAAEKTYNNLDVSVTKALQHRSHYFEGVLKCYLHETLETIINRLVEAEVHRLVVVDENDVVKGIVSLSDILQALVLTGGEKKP
Sequence of AMP-activated protein kinase (AMPK) alpha-1/beta-1/gamma-1 (Homo sapiens) (Q13131 whole entry partner): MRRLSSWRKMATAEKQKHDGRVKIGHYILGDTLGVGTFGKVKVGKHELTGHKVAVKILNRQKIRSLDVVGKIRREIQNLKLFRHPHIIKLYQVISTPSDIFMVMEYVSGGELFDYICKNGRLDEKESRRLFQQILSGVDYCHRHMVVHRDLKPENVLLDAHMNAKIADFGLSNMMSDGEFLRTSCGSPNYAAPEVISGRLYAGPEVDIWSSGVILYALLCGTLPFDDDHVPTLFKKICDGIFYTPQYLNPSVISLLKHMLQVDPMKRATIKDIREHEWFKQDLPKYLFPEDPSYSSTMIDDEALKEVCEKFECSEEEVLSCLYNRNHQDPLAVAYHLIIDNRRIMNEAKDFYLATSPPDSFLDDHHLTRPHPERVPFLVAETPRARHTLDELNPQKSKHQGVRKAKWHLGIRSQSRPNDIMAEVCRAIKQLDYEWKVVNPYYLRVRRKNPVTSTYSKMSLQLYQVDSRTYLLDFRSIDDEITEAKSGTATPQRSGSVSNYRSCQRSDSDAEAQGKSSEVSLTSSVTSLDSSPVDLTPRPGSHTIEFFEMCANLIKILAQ
Sequence of AMP-activated protein kinase (AMPK) alpha-1/beta-1/gamma-1 (Homo sapiens) (Q9Y478 2-270 partner limits assumed): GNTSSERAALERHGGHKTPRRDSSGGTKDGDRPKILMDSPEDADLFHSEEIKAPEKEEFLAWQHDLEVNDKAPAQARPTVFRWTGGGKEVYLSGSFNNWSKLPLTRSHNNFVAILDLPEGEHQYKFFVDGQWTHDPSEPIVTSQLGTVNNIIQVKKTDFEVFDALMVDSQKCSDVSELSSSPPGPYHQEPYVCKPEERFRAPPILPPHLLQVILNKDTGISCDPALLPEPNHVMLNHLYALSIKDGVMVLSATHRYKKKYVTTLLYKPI
Sequence of AMPK alpha2/beta1/gamma1 (Homo sapiens) (P54619 whole entry partner): as the sequence (P54619 whole entry) above
Sequence of AMPK alpha2/beta1/gamma1 (Homo sapiens) (P54646 whole entry): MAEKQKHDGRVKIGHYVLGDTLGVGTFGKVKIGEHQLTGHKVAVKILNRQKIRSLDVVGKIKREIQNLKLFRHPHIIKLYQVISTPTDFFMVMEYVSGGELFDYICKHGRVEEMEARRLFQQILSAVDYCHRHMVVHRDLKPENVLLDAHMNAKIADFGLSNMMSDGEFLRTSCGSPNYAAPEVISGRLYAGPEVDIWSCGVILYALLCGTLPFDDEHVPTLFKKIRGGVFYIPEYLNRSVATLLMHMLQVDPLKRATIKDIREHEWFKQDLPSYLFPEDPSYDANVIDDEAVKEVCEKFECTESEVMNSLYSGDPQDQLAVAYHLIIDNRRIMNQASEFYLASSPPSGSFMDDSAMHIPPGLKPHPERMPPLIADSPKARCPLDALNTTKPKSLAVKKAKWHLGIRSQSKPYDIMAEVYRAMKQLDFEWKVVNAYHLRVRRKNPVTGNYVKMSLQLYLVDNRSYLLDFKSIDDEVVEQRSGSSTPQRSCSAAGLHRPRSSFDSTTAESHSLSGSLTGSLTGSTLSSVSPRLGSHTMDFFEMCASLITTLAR
Sequence of AMPK alpha2/beta1/gamma1 (Homo sapiens) (Q9Y478 2-270 partner limits assumed): as the sequence (Q9Y478 2-270 partner limits assumed) above
Sequence of Serine/threonine-protein kinase PAK 3 (Homo sapiens) (O75914 whole entry, looked up): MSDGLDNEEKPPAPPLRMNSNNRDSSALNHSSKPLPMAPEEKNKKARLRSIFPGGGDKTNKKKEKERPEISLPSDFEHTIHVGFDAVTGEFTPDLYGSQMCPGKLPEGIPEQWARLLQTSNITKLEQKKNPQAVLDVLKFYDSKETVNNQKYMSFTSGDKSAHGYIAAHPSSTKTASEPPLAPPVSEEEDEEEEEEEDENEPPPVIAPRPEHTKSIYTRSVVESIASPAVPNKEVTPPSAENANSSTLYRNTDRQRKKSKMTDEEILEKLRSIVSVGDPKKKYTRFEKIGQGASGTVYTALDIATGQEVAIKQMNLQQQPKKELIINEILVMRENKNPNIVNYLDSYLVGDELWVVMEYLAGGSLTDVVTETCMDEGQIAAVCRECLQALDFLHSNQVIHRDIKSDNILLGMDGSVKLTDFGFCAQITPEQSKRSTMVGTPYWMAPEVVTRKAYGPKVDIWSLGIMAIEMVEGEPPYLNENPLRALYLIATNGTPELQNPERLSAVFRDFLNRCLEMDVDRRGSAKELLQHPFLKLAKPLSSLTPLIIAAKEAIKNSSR

% of inhibition [1]: -10.5%
% of inhibition [2]: -18.7%
SMILES: CC[C@@H]1[C@H](F)C(=O)N[C@@H]1COc1nccc2cc(C(N)=O)c(OC)cc12 [ZIMLOVISERTIB]

SMILES: COc1cc(N(C)c2ccnc3ccc(C(F)(F)F)cc23)cc(OC)c1OC
% binding [3]: 97%

% of inhibition [4]: 37%
SMILES: Cc1ccc(-c2ccc3c(ccc4sc5c(c43)NC[C@@H](C)NC5=O)n2)cn1

SMILES: CN(C)CCOc1ccc(-c2nc(-c3ccncc3)c(-c3ccc4c(c3)CC/C4=N\O)[nH]2)cc1
% of control [5]: 87%
% of control [6]: 72%

SMILES: CNC(=O)Nc1ccc(-c2nc(N3CC4CCC(C3)O4)c3cnn(C4CCC5(CC4)OCCO5)c3n2)cc1
% of inhibition [7]: 7%
% of inhibition [8]: 5%
% of inhibition [9]: -1%
